For data set [1], the target named is T1, Nuclear factor erythroid 2-related factor 2 (Homo sapiens) (UniProt Q16236).
T1 sequence (whole entry): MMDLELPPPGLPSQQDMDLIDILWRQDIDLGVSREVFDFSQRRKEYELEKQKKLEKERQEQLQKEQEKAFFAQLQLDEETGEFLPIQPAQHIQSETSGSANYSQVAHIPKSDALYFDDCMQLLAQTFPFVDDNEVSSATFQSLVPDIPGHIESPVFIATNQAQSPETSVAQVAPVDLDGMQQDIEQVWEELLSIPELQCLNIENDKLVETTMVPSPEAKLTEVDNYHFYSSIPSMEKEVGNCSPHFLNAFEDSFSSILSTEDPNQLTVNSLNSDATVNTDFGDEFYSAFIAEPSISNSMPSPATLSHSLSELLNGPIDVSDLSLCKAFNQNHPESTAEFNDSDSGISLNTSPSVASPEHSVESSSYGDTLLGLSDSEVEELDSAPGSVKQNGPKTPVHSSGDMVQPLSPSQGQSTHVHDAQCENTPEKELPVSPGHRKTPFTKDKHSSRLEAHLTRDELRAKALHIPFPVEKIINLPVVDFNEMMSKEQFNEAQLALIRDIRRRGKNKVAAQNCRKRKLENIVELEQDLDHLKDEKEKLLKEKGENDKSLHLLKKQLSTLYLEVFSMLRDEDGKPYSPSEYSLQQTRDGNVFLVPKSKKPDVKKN
As to conditions: Arec32, time 24.0 hrs.

A short description of the next data set: in vitro. Conditions: PAMPA, pH 7.4.
Data set [2] has as its system Hippocampal neurone. Briefly: Induction of neurogenesis in C57BL/6 mouse assessed as increase in cell migration distance by confocal microscopic analysis. In kind it is functional, cell-based.
Data set [3] deals with Hippocampal neurone. Briefly: Induction of neurogenesis in C57BL/6 mouse hippocampus neurospheres assessed as upregulation of MAP-2 by confocal microscopic analysis. In kind it is functional, cell-based.
For data set [4], the system named is Hippocampal neurone. Kind of data set: Induction of neurogenesis in C57BL/6 mouse hippocampus neurospheres assessed as upregulation of TuJ-1 by confocal microscopic analysis. In kind it is functional, cell-based.
The test system of data set [5] is Hippocampus. Kind of data set: Down regulation of okadaic acid induced HO-1 expression in C57BL/6J mouse hippocampus slice at 1 uM by Western blotting analysis. Format: functional, tissue-based. (Immunoblotting shows a protein as a band on a membrane.)
The subject of the next data set is SH-SY5Y. Briefly: (§1) Cytotoxicity against human SH-SY5Y cells assessed as cell viability at 100 uM incubated for 24 hrs by MTT assay. Format: toxicity, cell-based. Conditions: sh-sy5y, 24 h, 100 µM. For orientation: Tetrazolium dyes change colour on reduction, which living cells bring about.
Data set [6] has as its system Hippocampus. Kind of data set: Down regulation of okadaic acid induced p65 expression in C57BL/6J mouse hippocampus slice at 1 uM by Western blotting analysis. In kind it is functional, tissue-based.
The target of data set [7] is T2, Amine oxidase [flavin-containing] B (Homo sapiens, UniProt P27338).
T2 sequence (P27338 whole entry): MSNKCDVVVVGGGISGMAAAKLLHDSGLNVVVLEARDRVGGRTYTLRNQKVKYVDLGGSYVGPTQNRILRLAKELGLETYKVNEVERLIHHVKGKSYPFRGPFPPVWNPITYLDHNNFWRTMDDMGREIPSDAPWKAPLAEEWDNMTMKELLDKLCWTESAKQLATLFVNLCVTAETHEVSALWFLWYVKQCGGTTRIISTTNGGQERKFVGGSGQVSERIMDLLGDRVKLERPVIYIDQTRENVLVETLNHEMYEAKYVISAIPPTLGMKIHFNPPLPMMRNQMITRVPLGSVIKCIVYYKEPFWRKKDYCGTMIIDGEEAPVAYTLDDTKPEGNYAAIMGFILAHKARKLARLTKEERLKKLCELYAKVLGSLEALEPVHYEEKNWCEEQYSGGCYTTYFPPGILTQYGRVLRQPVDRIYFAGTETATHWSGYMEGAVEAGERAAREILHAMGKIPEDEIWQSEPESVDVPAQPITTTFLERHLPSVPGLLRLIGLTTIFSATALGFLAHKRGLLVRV
Kind of data set: Inhibition of human recombinant MAO-B at 15 microM preincubated upto 30 mins using tyramine as substrate by fluorescence assay relative to control. Conditions: TDE = time-dependent effect.

The subject of data set [8] is Hippocampus. Briefly: Down regulation of okadaic acid-induced inducible nitric oxide synthase expression in C57BL/6J mouse hippocampus slice at 1 uM by Western blotting analysis. Format: functional, tissue-based.
For data set [9], the system named is Hippocampus. Kind of data set: Neuroprotective activity in okadaic acid-induced toxicity in C57BL/6J mouse hippocampus slice assessed reduction in ROS level at 1 uM after 6 hrs by H2DCFDA probe based fluorescence analysis. In kind it is functional, tissue-based.
For data set [10], the system named is Hippocampus. Kind of data set: Neuroprotective activity in okadaic acid-induced toxicity in C57BL/6J mouse hippocampus slice assessed cell death at 1 uM after 6 hrs by propidium iodide staining. Format: functional, tissue-based.
Data set [11] is described as follows: GSH reactivity in presence glutathione-S-transferas by HPLC-MS analysis. In kind it is physicochemical.
Data set [12] has as its system Hippocampus. Briefly: Neuroprotective activity in okadaic acid-induced toxicity in C57BL/6J mouse hippocampus slice assessed as cell viability at 1 uM measured after 6 hrs by MTT assay. In kind it is functional, tissue-based.
Data set [13] addresses T2, Amine oxidase [flavin-containing] B. Briefly: Inhibition of human recombinant MAO-B at 2 microM preincubated upto 30 mins using tyramine as substrate by fluorescence assay relative to control. Conditions: TDE = time-dependent effect.
Data set [14] is described as follows: as §1. As to conditions: SH-SY5Y cells, read-out: Activity. Format: toxicity, cell-based.

The structures appear in SMILES notation. Active and inactive are the calls of the source. The calls are words filed in the database; no cut-off is given here.

Description for in vitro: Permeability of compound in PBS buffer at pH 7.4 by PAMPA-BBB assay

`C#CCNC(=O)/C=C/c1ccc(O)c(OC)c1`: the CD in data set [1] is above 60 µM. Besides, in the data set “in vitro”, the Papp is at most 0.5 ×10⁻⁶ cm/s.

On to `O=c1[nH]nc(/C=C/c2cccc(O)c2)o1`, for which the outcome with Hippocampal neurone [2], in the data set with Hippocampal neurone [3] and in the data set on Hippocampal neurone [4] was Active. Also, the CD in data set [1] is above 60 µM. Further, the Papp in the data set “in vitro” was at most 0.5 ×10⁻⁶ cm/s.

On to `C#CCn1nc(/C=C/c2ccc(OC)cc2)oc1=O`, for which the result with Hippocampus [5] was inactive. Moreover, the Activity result in the data set on SH-SY5Y was “Non-Toxic”; in data set [7], “Tde”; in data set [11] it was “Not Active”. The result in the data set on Hippocampal neurone [2], in the data set with Hippocampus [6], with Hippocampus [8], in the data set on Hippocampus [9], with Hippocampal neurone [3] and in the data set on Hippocampus [10] was Active. For the same compound, the result in the data set with Hippocampal neurone [4] and in the data set on Hippocampus [12] was Active.

On to `C#CCNC(=O)/C=C/c1ccc(O)c(O)c1`, for which the Activity result in the data set on SH-SY5Y is given as “Non-Toxic”. The Papp in “in vitro” was at most 0.4 ×10⁻⁶ cm/s.

Regarding `C#CCn1nc(/C=C/c2cccc(OC)c2)oc1=O`, in the data set with SH-SY5Y, the Activity result is “Non-Toxic”. For the same compound, the outcome in the data set with Hippocampal neurone [2], in the data set on Hippocampal neurone [3] and in the data set on Hippocampal neurone [4] was Active.

Compound `COc1cc(/C=C/c2n[nH]c(=O)o2)cc(OC)c1OC` yielded a Papp in “in vitro” of at most 0.5 ×10⁻⁶ cm/s.

For the compound `O=c1[nH]nc(/C=C/c2cccc([N+](=O)[O-])c2)o1`, the outcome in the data set on Hippocampal neurone [2], in the data set with Hippocampal neurone [3] and in the data set on Hippocampal neurone [4] was Active. Also, the Activity entry in data set [13] is recorded as “Tde”.

`O=c1[nH]nc(/C=C/c2ccc(O)c(O)c2)o1`: the Activity result in the data set with SH-SY5Y was “Non-Toxic”.

As for `C#CCNC(=O)/C=C/c1ccc(O)cc1`, the CD in [1] was above 60 µM.

For `C#CCNC(=O)/C=C/c1cccc(C#N)c1`, the CD in data set [1] was above 60 µM.

With `O=c1[nH]nc(/C=C/c2cc(O)cc(O)c2)o1`, the CD in data set [1] is above 60 µM. Moreover, the Papp in “in vitro” was at most 0.1 ×10⁻⁶ cm/s.

For `O=c1[nH]nc(/C=C/c2ccc(O)cc2)o1`, in the data set on SH-SY5Y, the Activity result is given as “Non-Toxic”. The Papp in the data set “in vitro” is at most 0.7 ×10⁻⁶ cm/s.

`C#CCNC/C=C/c1ccc(O)c(OC)c1`: the Activity result in the data set on SH-SY5Y is “Non-Toxic”.

In the case of `Oc1ccc(/C=C/c2cc(O)cc(O)c2)cc1` [RESVERATROL], the viability at 24 h, 100 µM in data set [14] is 50%.

`C#CCn1nc(/C=C/c2ccccc2)oc1=O`: in data set [14], the viability at 24 h, 100 µM is 30%.

As for `O=c1[nH]nc(/C=C/c2ccc3c(c2)OCO3)o1`, the CD in data set [1] is above 60 µM.

In data set [1], `COc1ccc(/C=C/c2n[nH]c(=O)o2)cc1OC` displayed a CD above 60 µM.

As to `COc1cccc(/C=C/c2n[nH]c(=O)o2)c1`, the result in the data set on Hippocampal neurone [2], in the data set with Hippocampal neurone [3] and in the data set with Hippocampal neurone [4] was Active. In addition, the CD in [1] is above 60 µM.

`COc1ccc(/C=C/c2n[nH]c(=O)o2)cc1`: in data set [1], the CD was above 60 µM.

A word on the Papp: it is the rate of passage across a membrane or cell layer, normalised by area and donor concentration.

(Values after ChEMBL document CHEMBL5046292, “Resveratrol-Based MTDLs to Stimulate Defensive and Regenerative Pathways and Block Early Events in Neurodegenerative Cascades” (J Med Chem, 2022).)
